Values of other authors in patent US5663151A, “Sulfated α-glycolipid derivatives as cell adhesion inhibitors” (Bristol-Myers Squibb Company, priority 1995, dated 1997).

Tests used:
P-selectin [1] = conditions: Larsen et al.; Erbe et al.; Aruffo et al.; cited from earlier work
P-selectin [2] = conditions: cells grown in the presence of sodium selenate; cited from earlier work
P-selectin [3] = conditions: Skinner et al.; cited from earlier work

| Molecule | P-selectin has been shown to bind (P-selectin [1]) | other results |
| --- | --- | --- |
| CC(=O)N[C@H]1C(O)O[C@H](CO)[C@@H](O[C@@H]2O[C@H](CO)[C@H](O)[C@H](O)[C@H]2O)[C@@H]1O[C@@H]1O[C@@H](C)[C@@H](O)[C@@H](O)[C@@H]1O (stereo partly shown) [Le^x] | shown to bind |  |
| O=[Se](=O)(O)O [sodium selenate] |  | binding of P-selectin to myeloid cell lines (P-selectin [2]): can be inhibited |
| heparin |  | inhibit P-selectin mediated adhesion (P-selectin [3]): inhibit P-selectin mediated adhesion |
| sialyl-Le^x | shown to bind |  |
